The test system of one data set is platelet (PLT). Briefly: Effect of single intravenous injection on platelet count in beagle dogs (Test Example 5). The format is in vivo. How it is done: Method of administration: the weight was measured and the dosing amount was calculated based on the weight; the administration regimen is shown in Table 13 below. The drugs were slowly administered by intravenous injection. Blood was collected from the jugular vein or by other suitable means, about 1 mL per sample.

Data set [1] in a line: Pharmacokinetic study, single intravenous injection to rats (Test Example 1). The format is in vivo, SD rats. How it is done:
• (1) Preparation of docetaxel: commercially available docetaxel injection (0.5 mL:20 mg) was diluted to 4 mg/mL with normal saline; • (2) Preparation of other test compounds: the compounds were dissolved in DMSO with a final concentration of 5%, and the solutions were diluted to 4 mg/mL with normal saline.
Female SD rats, weighing 160-180 g, 6 weeks old, SPF
Plasma samples were separated, and the esterase inhibitor DDVP was added. The samples were stored at −80° C. and tested for docetaxel level (N=3).

Data set [2] has as its system human lung cancer cell A549. Briefly: Antitumor effect in subcutaneous tumor graft model of human lung cancer cell A549 (Test Example 3). The format is in vivo, BALB/C nude mice. The settings on record: for Tumor volume: i.v. QW × 4 doses, docetaxel 20, 1-Z00 20, 1-Z00-J 10 mg/kg. As for the experimental part: Samples are prepared according to Table 5 below.
BALB/C nude mice, female, 6-7 week old (the age when tumor cell inoculation was performed), weighing 16.5-22.6 g, purchased from GemPharmatech Co., Ltd., certificate No. 320727210100243463. Housing environment: SPF.
A549 cells (National Collection of Authenticated Cell Cultures/Cell Bank of Shanghai Institutes for Biological Sciences (cellbank.org.cn, SIBS)) were cultured in an F12K medium (Gibco) containing 10% fetal bovine serum. Cells were collected when growing at the exponential phase and resuspended in PBS to a suitable concentration for use in subcutaneous tumor inoculation in mice.
5×10^6 A549 cells were subcutaneously inoculated into the right side of female mice (inoculation volume: 0.1 mL/mouse). The day of inoculation was defined as day 0. When the mean tumor volume was 142.96 mm^3 (on day 13 after cell inoculation), the mice were randomly grouped according to tumor size as shown in Table 6 below (dosing volume: 10 μL/g).
After tumor inoculation, routine monitoring items included the effect of tumor growth and treatment on the normal behavior of animals, including activity, food intake and water intake, weight gain or loss (body weight was measured twice a week), abnormalities in eyes, hair, etc. Clinical symptoms observed during the experiment were all recorded in the raw data. Tumor volume calculation formula: tumor volume (mm^3)=½×(a×b^2) (where a represents long diameter and b represents short diameter). In the experiment, data collection, including measurement of tumors' long and short diameters and animals' body weight, was performed using StudyDirector™ (version: 3.1.399.19; supplier: Studylog System, Inc., S. San Francisco, CA, USA) software. Raw data measured by scales and vernier calipers were directly imported into the software. Any changes in the data were recorded in the software.
When the body weight of an individual animal decreased by >20%, it was euthanized according to animal welfare.
Relative tumor proliferation rate, T/C (%), refers to the percentage value of the relative tumor volume or tumor weight of the treatment group and the control group at a certain time point. The calculation formula is: T/C %=TRTV/CRTV×100% (TRTV: mean RTV of treatment group; CRTV: mean RTV of control group; RTV=Vt/V0, V0 is the tumor volume of the animal at the time of grouping, and Vt is the tumor volume of the animal after treatment).
All the results are expressed as mean tumor volume±SEM (standard error of the mean). The best point of drug treatment (usually after the last administration) was selected for statistical analysis between different groups. A two-way ANOVA was used to determine whether there was a significant difference in tumor volume between a treatment group and the control group. p<0.05 indicates a significant difference. Statistical analysis and graphing were both performed in the R language environment (version 3.3.1). All tests were two-tailed unless otherwise specified. A p value less than 0.05 was considered statistically significant.

Data set [3] in a line: Hematological analysis (complete blood count) in the A549 subcutaneous tumor graft model (Test Example 3).
Experimental: After the last administration, plasma was collected at the time points designated in Table 7 (EDTA anticoagulant tubes were used (the esterase inhibitor DDVP was added at the time of blood collection)). After plasma collection at the last time point was complete, the mice were euthanized, and tumors were collected, snap frozen and stored.
Data set [4] in a line: Pharmacokinetic study, single intravenous injection to beagle dogs, docetaxel macromolecules (Test Example 2). The format is in vivo. The settings on record: single IV 3 mg/kg, free docetaxel in plasma, mean (1 male + 1 female). How it is done: Docetaxel (84 mg/vial, commercially available) was dissolved in 5% (final volume) DMSO+30% PEG300+5% Tween 80+60% deionized water to obtain 0.6 mg/mL formulations for intravenous injection.
Beagle dogs, non-naïve, sourced from Medicilon: 999M-004.
Method of administration: the weight was measured and the dosing amount was calculated based on the weight. The drugs were slowly administered by intravenous injection. Blood was collected from the jugular vein or by other suitable means, about 1 mL per sample. Plasma samples were collected before administration and at different time points after administration and tested for free docetaxel level in plasma. For the docetaxel group, collection was performed before administration and at 0.083 h, 0.5 h, 1 h, 2 h, 4 h, 6 h, 8 h and 24 h after administration.

Setting [5] is: female SD rats, single IV 10 mg/kg, docetaxel level in plasma, N=3.
Setting [6] is: rat, female SD rats, single IV 10 mg/kg, docetaxel level in plasma, N=3.
The mark [7] stands for this setting: day 21 after administration began, docetaxel 20, 1-Z00 20, 1-Z00-J 10 mg/kg i.v. QW × 4.
Setting [8] is: A549 tumor-bearing mice after last administration, docetaxel 20, 1-Z00 20, 1-Z00-J 10 mg/kg i.v., mean ± standard deviation.

SMILES strings stand for the structures. “And” between values parts separate entries of the source, which are not always exact repeats. Identical values can stand only once.

On to `O=C(NS(=O)(=O)c1ccc(N[C@@H](CSc2ccccc2)C[C@@H]2CCCN2CCO)c(S(=O)(=O)C(F)(F)F)c1)c1ccc(N2CCC([C@@H](O)c3ccccc3-c3ccc(Cl)cc3)CC2)cc1` [Compound 3], for which the “Day 2 (24 h after administration) PLT mean value” in the data set with platelet (PLT) (beagle dogs, 24 h after single IV 3 mg/kg, mean) was 34.00 10^9/L. For the same compound, the “Day 1 (before administration) PLT mean value” with platelet (PLT) (beagle dogs, before single IV 3 mg/kg (baseline), mean) was 355.00 10^9/L. Moreover, in the data set with platelet (PLT) (beagle dogs, single IV 3 mg/kg), the “Difference (%) between PLT count in dogs at 24 h after administration and that before administration” value was −90.42%. In addition, the “mortality (animals died)” value with platelet (PLT) (beagle dogs, single IV 3 mg/kg, 3 dogs with compound 3, 2 dogs per dendrimer) is recorded as 2. Moreover, in the data set with platelet (PLT) (individual male beagle dog, 24 h after single IV 3 mg/kg), the “Day 2 (24 h after administration) PLT” value is recorded as 34.00 10^9/L. Also, the “Day 1 (before administration) PLT” value in the data set on platelet (PLT) (individual male beagle dog, before single IV 3 mg/kg (baseline)) is 355.00 10^9/L.
As to `CC(=O)O[C@@]12CO[C@@H]1C[C@H](O)[C@@]1(C)C(=O)[C@H](O)C3=C(C)[C@@H](OC(=O)[C@H](O)[C@@H](NC(=O)OC(C)(C)C)c4ccccc4)C[C@@](O)([C@@H](OC(=O)c4ccccc4)[C@H]21)C3(C)C` [Docetaxel], in data set [1] (setting [5]), the AUMC0-inf is 2663.5 h · h · ng · mL^−1, the AUMC0-t is 1669.3 h · h · ng · mL^−1, the Kel was determined as 0.3 h⁻¹ and the MRTIV amounted to 1.8 h. In data set [1] (setting [6]), this compound showed an AUC(0-inf) of 1480 ng·h/mL, an AUC(0-t) of 1400 ng·h/mL, a C0 of 2840 ng/mL and a Cmax of 1990 ng/mL. In data set [1] (setting [6]), this compound showed a clearance of 116 mL/min/kg and a half-life of 2.1 h. In addition, in data set [1] (rat, female SD rats, single IV 10 mg/kg, docetaxel level in plasma, N=3, read-out: VdSS), the Vd was 12.1 L/kg. For the same compound, the “sustained-release effect, exposure and clearance (conclusion in words)” value in data set [1] (rats, IV 10 mg/kg) was “rapid plasma clearance and low exposure”. This compound also came in with a Tumor volume in data set [2] (day 0 after administration began (baseline at grouping), mean ± standard error) of 142.49 ± 6.17 mm^3. Moreover, the Tumor volume in data set [2] (day 3 after administration began, mean ± standard error) is 187.27 ± 18.12 mm^3. The Tumor volume in data set [2] (day 7 after administration began, mean ± standard error) was found to be 294.09 ± 32.19 mm^3. The same compound yielded a Tumor volume in data set [2] (day 10 after administration began, mean ± standard error) of 362.73 ± 41.13 mm^3. For the same compound, in data set [2] (day 14 after administration began, mean ± standard error), the Tumor volume is on record as 460.59 ± 68.72 mm^3. For the same compound, in data set [2] (day 17 after administration began, mean ± standard error), the Tumor volume is recorded as 502.25 ± 84.97 mm^3. For the same compound, in data set [2] (setting [7]), the “T/C (relative tumor proliferation rate)” value came out at 33.76% and the “TGI (relative tumor inhibition)” value turned out to be 66.24%. The compound also showed a Relative tumor volume in data set [2] (day 21 after administration began, docetaxel 20, 1-Z00 20, 1-Z00-J 10 mg/kg i.v. QW × 4, mean ± standard error) of 3.87 ± 0.61. Also, in data set [2] (day 21 after administration began, mean ± standard error), the Tumor volume was 564.93 mm^3 and 564.93 ± 108.61 mm^3. Besides, the “decrease of white blood cells, lymphocytes and mononuclear cells compared to the vehicle control group (factor)” value in data set [3] (20 mg/kg i.v.) is 2-3. In data set [3] (setting [8]), the “Eosinophil EO#” value is listed as 0.02 ± 0.02 10^9/L, the “Lymphocyte LYMPH#” value is recorded as 1.58 ± 0.39 10^9/L, the “Mononuclear cell MONO#” value is recorded as 0.11 ± 0.02 10^9/L and the “Neutrophil NEUT#” value is reported as 0.81 ± 0.47 10^9/L. Further, in data set [3] (setting [8]), the “White blood cell count WBC” value is on record as 2.52 ± 0.08 10^9/L. Also, in data set [4] (both sexes, dog), the AUC(0-inf) was determined as 2040 ng·h/mL, the AUC(0-t) is 1890 ng·h/mL, the clearance is 24.6 mL/min/kg and the half-life is 13.5 h. Also, in data set [4] (both sexes, dog, read-out: Vdss), the Vd stood at 7.39 L/kg. In addition, in data set [4], the AUMC0-inf was determined as 10234 h·h·ng·mL^−1, the AUMC0-t is reported as 3854 h·h·ng·mL^−1, the Kel was determined as 0.0515 h⁻¹ and the “Mean residence time (MRT)” value is 5.02 h.

The AUC(0-inf) is the area under the concentration-time curve extrapolated to infinity. One may read the AUC(0-t) as exposure summed from dosing to a finite time, without extrapolation to infinity. One may read the Cmax as the peak of the concentration-time curve. The clearance is a measure of how efficiently the substance is removed, as volume per time. As usually defined, the half-life is how long it takes for the measured level to halve.

The record behind these values is patent US20240016946A1, “DRUG-LOADED MACROMOLECULE AND PREPARATION METHOD THEREFOR” (SHANGHAI SENHUI MEDICINE CO., LTD., priority 2020, published 2024).
